According to patent US20140271765A1 (priority 2013, published 2014):
“And” between values parts separate entries of the source, which are not always exact repeats. Equal values may be shown once. Read-outs that look alike come from different tables or passages of the source.

Experiments:
[1] = in vivo
[2] = dog, in vivo
[3] = buprenorphine
[4] = human, in vivo
[5] = 2 implants, individual subjects

Q: What does the source list for `CO[C@@]12CC[C@@]3(C[C@@H]1[C@](C)(O)C(C)(C)C)[C@H]1Cc4ccc(O)c5c4[C@@]3(CCN1CC1CC1)[C@H]2O5` [buprenorphine]?
A: shortest half-life during the plateau phase ([1]; human): 25 weeks; Cave from Day 21 to removal, higher in the higher dose group as compared with the lower dose group [1]: 93%; Cmax, higher in the higher dose group as compared with the lower dose group [1]: 62%; reduction in buprenorphine concentrations from Day 17 to removal [1]: ≤ 50%; time to reach plateau phase [1]: ≤ 21 days; changes in plasma buprenorphine exposure with external heat [2]: No consistent changes; mean steady state concentration (Css1) [2]: 3.90 ng/mL; mean steady-state concentration (Css3) [2]: 3.86 ng/mL; mean steady-state plasma buprenorphine concentration (Css2) [2]: 4.37 ng/mL; steady state concentration (Css1), range [2]: 3.01 to 4.77 ng/mL; steady-state concentration (Css3), range [2]: 2.73 to 4.84 ng/mL; steady-state plasma buprenorphine concentration (Css2), range [2]: 2.61 to 5.42 ng/mL; Model predicted concentration at removal ([3]; 2 implants, Mean): 330.7 pg/mL; Time from implant to reaching 2x last concentration ([3]; 2 implants, Mean): 242.0 h; α-Half Life ([3]; 2 implants, Mean): 12.75 h; β-Half Life ([3]; 2 implants, Mean): 133.1 h; γ-Half life ([3]; 2 implants, Mean): 160.7 weeks; Model predicted concentration at removal ([3]; 2 implants, Median): 340.0 pg/mL; Time from implant to reaching 2x last concentration ([3]; 2 implants, Median): 231.0 h; α-Half Life ([3]; 2 implants, Median): 7.55 h; β-Half Life ([3]; 2 implants, Median): 124.0 h; γ-Half life ([3]; 2 implants, Median): 77.9 weeks; Model predicted concentration at removal [3, 5]: 263 pg/mL and 342 pg/mL (2×) and 252 pg/mL and 447 pg/mL and 338 pg/mL; Time from implant to reaching 2x last concentration [3, 5]: 396 h and 259 h and 313 h and 180 h and 101 h and 203 h; α-Half Life [3, 5]: 7.55 h and 4.17 h and 115 h and 39.7 h and 2.94 h and 9.41 h; β-Half Life [3, 5]: 124 h and 206 h and 3578 h and 174 h and 52.3 h and 109 h; γ-Half life [3, 5]: 29.9 weeks and 457 weeks and 35.7 weeks and 120 weeks; Model predicted concentration at removal ([3]; 4 implants, Mean): 6.11 pg/mL; Time from implant to reaching 2x last concentration ([3]; 4 implants, Mean): 715.7 h; α-Half Life ([3]; 4 implants, Mean): 3230 h; β-Half Life ([3]; 4 implants, Mean): 15.95 h; Model predicted concentration at removal ([3]; 4 implants, Median): 5.76 pg/mL; Time from implant to reaching 2x last concentration ([3]; 4 implants, Median): 706.5 h; α-Half Life ([3]; 4 implants, Median): 3020 h; β-Half Life ([3]; 4 implants, Median): 15.75 h; duration of plateau of therapeutically-effective plasma level [4]: at least 24 weeks; time until plasma concentration reaches a plateau [4]: about a few days to about two weeks
